Measurements taken from patent US7208282B2 (priority 2001, dated 2007).
Several values for one entry are separate records, joined by “and”; a condition that tells them apart may be missing. Equal values may be shown once.

Key:
[1] = system: mock transfected cells; experiment: radioligand binding to mock transfected HEK293T cells; design: species or system human; details: for specific binding into mock transfected cells: in words
Method: HEK293T cells were seeded into 24-well culture plates coated with poly-D-Lys at 1×10^5 cells/well and were cultured over-night. […] Forty-eight hours after transfection, the transfected monolayer cells were rinsed with the assay buffer (Hanks' balanced salt solution containing 20 mM HEPES, 0.2% BSA and 100 μg/ml bacitracin, pH 7.4). The cells were then incubated in 250 μl/well of the same buffer with [^125I]-MCH (100 pM, NEN Life Science Products, Boston, Mass.) or [^125I]-[Phe^13, Tyr^19]-MCH (100 pM, NEN Life Science Products) for 30 minutes at 37° C. After the incubation, the cells were washed three times with the ice cold assay buffer and lysed with 500 μl/well of 2 M NaOH. The lysates were transferred into test tubes and the cell-bound radioactivity was measured by a COBLA Quantum γ-counter (Packard Instrument, Meriden, Conn.).

[2] = system: ferret MCH-2R; experiment: membrane radioligand binding assay, transfected COS-7 cells, ferret MCH-2R; details: COS-7 membranes
Method: Membrane binding assays were performed on transiently-transfected COS-7 cells using human or ferret MCH-2R in the plasmid vector pCI-neo (Promega, Madison, Wis.), COS-7 cells were cultured in Dulbecco's modified Eagle medium (Gibco BRL, Rockville, Md.) with 10% heat inactivated fetal calf serum.
A suspension of 7×10^6 COS-7 cells were transfected with 20 μg of pCI-neo/MCH-2R plasmid by electroporation. (Strader, et al., 1987. Proc. Natl. Acad. Sci. USA 84, 4384–4388). Cells were harvested after 60–72 hours. Membranes were prepared from transient and stable transfectants by hypotonic lysis, frozen in liquid nitrogen, and stored at −80° C. (MacNeil, et al., 1994. Biochem. Biophys. Res. Commun. 198, 328–334.)
A binding assay was set up in 96 well plates. Total volume per binding assay point was 200 μL. […] Dose response curves were from 10 μM in 5 fold or 3-fold dilution series for 11 points. The mixture was shaken for 5 minutes on a platform shaker, and incubated at room temperature for 1 hour. Filter plates were presoaked in 1% PEI. The binding reaction was harvested onto filters using Packard Filtermate harvester (Meriden, Conn.). The filters were then washed in 50 mM Tris pH 7.4, 10 mM MgCl2, 2 mM EDTA, 0.04% Tween 20, 6–8 times per plate. […] 30 μL microscintillant was added per well and counted for 1.5–3 minutes in inverted format on Packard TopCount. […]

[3] = system: non-transfected cells; experiment: intracellular calcium (fura-2) in non-transfected HEK293T cells; assay type: cell-based, human; details: data not shown
Description: The entire coding sequence of rhesus MCH-2R was cloned into BamHI-NotI site of pEF1/[…] C plasmid vector (Invitrogen). The resultant construct was transfected into HEK293T cells using LipofectAmine PLUS (Life Technologies, Rockville, Md.) according to the manufacture's instructions. Human embryonic kidney cells constitutively expressing SV40 large T antigen (HEK-293T) were maintained in Dulbecco's modified Eagle medium (Life Technologies) supplemented with 10% fetal bovine serum, 100 units/ml penicillin-G and 100 μg/ml streptomycin at 37° C. with 5% CO2 in a humidified atmosphere. […] The cells were suspended with the buffer containing 2 μM fura-2 acetoxymethylester (Dojin, Kumamoto, Japan) into the cell density of 1.0×10^7 cells/ml and incubated at 37° C. for 60 minutes with gently shaking. The fura-2-loaded cells were washed twice with the buffer and re-suspended with the buffer to 1.0×10^6 cells/ml. 0.5 ml of the resultant suspension was stirred continuously at 37° C. in a glass cuvette during the measurement. […] Data were analyzed using the software GraphPad Prism Version 3.0 (GraphPad Software, Inc., San Diego, Calif., USA).

[4] = system: ferret MCH-2R; experiment: aequorin bioluminescence functional assay, ferret MCH-2R; assay type: cell-based; details: aequorin HEK-293 cells, read-out: Function (EC50)
Description: The aequorin bioluminescence assay is a reliable test for identifying G-protein-coupled receptors which couple through the G protein subunit family consisting of Gq and G11 which leads to the activation of phospholipase C, mobilization of intracellular calcium, and activation of protein kinase C. (Ungrin, et al., Anal. Biochem. 1999. 272:34–42.)
For expression studies, HEK-293 cells stably expressing the aequorin reporter protein were transiently transfected with MCH-2R human or ferret expression plasmid or stable cell lines were derived (human MCH-2R). The assay was performed using a Luminoscan RT luminometer (Labsystems Inc., Gaithersburg, Md.).
293AEQ17/Aequorin cells (Button, et al., 1993. Cell Calcium 14, 663–671), were cultured for 72 hours and the apo-aequorin in the cells was charged for 1 hour with coelenterazine (10 μM) under reducing conditions (300 μM reduced glutathione) in ECB buffer (140 mM NaCl, 20 mM KCl, 20 mM HEPES-NaOH, pH 7.4, 5 mM glucose, 1 mM MgCl2, 1 mM CaCl2, 0.1 mg/mL bovine serum albumin). […] 100 μL of cell suspension (corresponding to 5×10^4 cells) was then injected into the test plate containing ligands, and the integrated light emission was recorded over 30 seconds, in 0.5-second units. 20 μL of lysis buffer (0.1% final Triton X-100 concentration) was then injected and the integrated light emission recorded over 10 seconds, in 0.5-second units. […]

[5] = target: T1, rhesus MCH-2R (Macaca mulatta, UniProt Q8MJ88); experiment: radioligand binding to adherent HEK293T cells expressing rhesus MCH-2R; design: species or system rhesus monkey
T1 construct: expressed in transfected cells; host or cells: HEK293T
Method: HEK293T cells were seeded into 24-well culture plates coated with poly-D-Lys at 1×10^5 cells/well and were cultured over-night. The adherent cells were transfected with pEF1/V5-HisC/rhesus MCH-2R plasmid (see Example 2). Forty-eight hours after transfection, the transfected monolayer cells were rinsed with the assay buffer (Hanks' balanced salt solution containing 20 mM HEPES, 0.2% BSA and 100 μg/ml bacitracin, pH 7.4). The cells were then incubated in 250 μl/well of the same buffer with [^125I]-MCH (100 pM, NEN Life Science Products, Boston, Mass.) or [^125I]-[Phe^13, Tyr^19]-MCH (100 pM, NEN Life Science Products) for 30 minutes at 37° C. After the incubation, the cells were washed three times with the ice cold assay buffer and lysed with 500 μl/well of 2 M NaOH. The lysates were transferred into test tubes and the cell-bound radioactivity was measured by a COBLA Quantum γ-counter (Packard Instrument, Meriden, Conn.).

[6] = 100 pM radioligand, Mock transfected cells

T1 sequence (Q8MJ88 whole entry): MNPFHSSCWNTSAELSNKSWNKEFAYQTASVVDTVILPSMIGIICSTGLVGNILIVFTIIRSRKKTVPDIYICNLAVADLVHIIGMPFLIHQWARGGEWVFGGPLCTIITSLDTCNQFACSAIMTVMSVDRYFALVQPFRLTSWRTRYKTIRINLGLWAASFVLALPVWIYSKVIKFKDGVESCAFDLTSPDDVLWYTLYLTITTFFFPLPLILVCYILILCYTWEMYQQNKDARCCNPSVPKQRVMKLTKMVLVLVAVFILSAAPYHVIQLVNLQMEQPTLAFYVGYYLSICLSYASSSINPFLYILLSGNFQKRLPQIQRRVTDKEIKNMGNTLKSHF
Sequence of ferret MCH-2R (as listed by the source): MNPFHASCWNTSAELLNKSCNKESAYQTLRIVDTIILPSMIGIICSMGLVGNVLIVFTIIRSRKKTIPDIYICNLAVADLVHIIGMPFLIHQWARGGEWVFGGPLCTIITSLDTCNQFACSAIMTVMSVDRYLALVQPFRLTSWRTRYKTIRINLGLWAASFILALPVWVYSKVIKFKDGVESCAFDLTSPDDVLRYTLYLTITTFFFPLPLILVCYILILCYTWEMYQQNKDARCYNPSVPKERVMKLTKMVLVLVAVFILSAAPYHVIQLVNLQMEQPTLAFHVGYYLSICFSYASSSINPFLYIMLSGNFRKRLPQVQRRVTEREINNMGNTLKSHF

Substance	[125I]-MCH binding, Total binding [1, 6]	[125I]-MCH binding, Nonspecific binding ([1]; 100 pM radioligand, in the presence of 1 μM cold MCH, Mock transfected cells)	specific binding into mock transfected cells [1]	IC50 [2] [nM]	[Ca2+]i increase in non-transfected cells [3]	EC50 [4] [nM]	[125I]-[Phe13, Tyr19]-MCH binding, Total binding ([5]; 100 pM radioligand, 30 minutes at 37° C., rhesus MCH-2R transfected cells)	[125I]-[Phe13, Tyr19]-MCH binding, Nonspecific binding ([5]; 100 pM radioligand, in the presence of 1 μM cold [Phe13, Tyr19]-MCH, rhesus MCH-2R transfected cells)	binding to HEK293T cells expressing rhesus MCH-2R ([5]; in words)	[125I]-[Phe13, Tyr19]-MCH binding, Total binding [1, 6]	[125I]-[Phe13, Tyr19]-MCH binding, Nonspecific binding ([1]; 100 pM radioligand, in the presence of 1 μM cold [Phe13, Tyr19]-MCH, Mock transfected cells)
[^125I]-MCH	209.9 cpm and 215.8 cpm and 239.8 cpm	172.0 cpm and 180.9 cpm and 184.1 cpm	not observed	–	–	–	–	–	–	–	–
Melanin-concentrating hormone [MCH]	–	–	–	55	failed to induce a detectable [Ca^2+]i increase	69	–	–	–	–	–
[^125I]-[Phe^13, Tyr^19]-MCH	–	–	not observed	–	–	–	18031.2 cpm and 18749.0 cpm and 17985.4 cpm	567.4 cpm and 717.0 cpm and 598.0 cpm	good windows	708.9 cpm and 663.3 cpm and 771.5 cpm	539.7 cpm and 537.7 cpm and 557.8 cpm
